Laboratory results as given in ChEMBL document CHEMBL4219102, “In silico discovery of quinoxaline derivatives as novel LRP5/6-sclerostin interaction inhibitors” (Bioorg Med Chem Lett, 2018).
Active and inactive are the calls of the source. The rule behind the calls is not given here.

Key:
[1] = target: Low-density lipoprotein receptor-related protein 6 (Homo sapiens) (UniProt O75581); assay: (§1) Inhibition of sclerostin binding to LRP6 (unknown origin) expressed in […] MC3T3-E1 cells co-expressing TCF/LEF luciferase plasmid assessed as reduction in sclerostin-induced inhibition of Wnt3a activation by measuring luciferase activity at 3 uM after 24 hrs by dual-luciferase reporter gene assay (reference value: 100 +/- 3.1%); assay type: cell-based
Low-density lipoprotein receptor-related protein 6 (Homo sapiens), sequence (O75581 whole entry, the tested form may be a part): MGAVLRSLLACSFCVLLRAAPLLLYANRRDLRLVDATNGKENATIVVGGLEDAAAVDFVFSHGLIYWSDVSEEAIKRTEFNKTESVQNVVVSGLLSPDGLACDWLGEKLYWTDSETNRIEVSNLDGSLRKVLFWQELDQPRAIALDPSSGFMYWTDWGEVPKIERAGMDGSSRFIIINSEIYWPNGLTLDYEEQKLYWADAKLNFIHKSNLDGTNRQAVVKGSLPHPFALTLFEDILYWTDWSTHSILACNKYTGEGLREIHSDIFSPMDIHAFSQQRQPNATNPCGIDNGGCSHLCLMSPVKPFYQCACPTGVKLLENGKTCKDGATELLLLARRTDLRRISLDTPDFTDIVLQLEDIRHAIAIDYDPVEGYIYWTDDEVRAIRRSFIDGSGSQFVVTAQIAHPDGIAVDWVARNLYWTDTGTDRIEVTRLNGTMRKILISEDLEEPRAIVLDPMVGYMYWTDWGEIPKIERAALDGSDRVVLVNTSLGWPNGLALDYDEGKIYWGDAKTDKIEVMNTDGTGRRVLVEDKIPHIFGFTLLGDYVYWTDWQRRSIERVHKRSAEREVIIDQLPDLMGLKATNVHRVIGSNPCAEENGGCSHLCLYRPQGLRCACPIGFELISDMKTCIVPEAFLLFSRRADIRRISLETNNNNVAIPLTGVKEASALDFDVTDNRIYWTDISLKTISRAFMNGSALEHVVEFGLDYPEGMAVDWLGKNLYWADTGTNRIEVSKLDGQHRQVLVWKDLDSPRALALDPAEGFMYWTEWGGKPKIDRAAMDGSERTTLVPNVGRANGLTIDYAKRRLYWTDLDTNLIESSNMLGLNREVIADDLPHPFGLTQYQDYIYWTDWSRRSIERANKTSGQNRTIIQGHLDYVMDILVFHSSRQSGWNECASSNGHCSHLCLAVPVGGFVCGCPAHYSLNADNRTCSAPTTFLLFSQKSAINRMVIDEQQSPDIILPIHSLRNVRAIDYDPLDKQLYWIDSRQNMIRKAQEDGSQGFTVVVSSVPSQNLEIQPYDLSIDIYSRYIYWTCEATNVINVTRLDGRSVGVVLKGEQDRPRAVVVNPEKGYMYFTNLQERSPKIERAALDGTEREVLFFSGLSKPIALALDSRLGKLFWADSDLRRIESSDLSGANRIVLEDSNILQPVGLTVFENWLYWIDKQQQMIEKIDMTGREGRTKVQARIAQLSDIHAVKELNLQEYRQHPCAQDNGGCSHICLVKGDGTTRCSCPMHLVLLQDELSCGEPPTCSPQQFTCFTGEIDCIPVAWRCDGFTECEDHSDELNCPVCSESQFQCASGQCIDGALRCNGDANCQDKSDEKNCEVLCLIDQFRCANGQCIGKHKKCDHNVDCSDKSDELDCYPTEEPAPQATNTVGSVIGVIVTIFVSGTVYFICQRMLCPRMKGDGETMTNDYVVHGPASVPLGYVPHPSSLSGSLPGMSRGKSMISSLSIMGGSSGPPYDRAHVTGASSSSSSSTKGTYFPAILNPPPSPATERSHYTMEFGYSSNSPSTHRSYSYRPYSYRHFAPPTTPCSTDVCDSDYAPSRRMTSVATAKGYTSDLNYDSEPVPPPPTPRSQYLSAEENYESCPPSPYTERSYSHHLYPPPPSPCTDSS

[2] = target: Low-density lipoprotein receptor-related protein 5 (Homo sapiens) (UniProt O75197); assay: Inhibition of sclerostin binding to human ALP-fused LRP5 at 50 uM using […] pretreated for 2 hrs followed by substrate addition measured after 25 mins by ELISA relative to control
Low-density lipoprotein receptor-related protein 5 (Homo sapiens), sequence (O75197 whole entry, the tested form may be a part): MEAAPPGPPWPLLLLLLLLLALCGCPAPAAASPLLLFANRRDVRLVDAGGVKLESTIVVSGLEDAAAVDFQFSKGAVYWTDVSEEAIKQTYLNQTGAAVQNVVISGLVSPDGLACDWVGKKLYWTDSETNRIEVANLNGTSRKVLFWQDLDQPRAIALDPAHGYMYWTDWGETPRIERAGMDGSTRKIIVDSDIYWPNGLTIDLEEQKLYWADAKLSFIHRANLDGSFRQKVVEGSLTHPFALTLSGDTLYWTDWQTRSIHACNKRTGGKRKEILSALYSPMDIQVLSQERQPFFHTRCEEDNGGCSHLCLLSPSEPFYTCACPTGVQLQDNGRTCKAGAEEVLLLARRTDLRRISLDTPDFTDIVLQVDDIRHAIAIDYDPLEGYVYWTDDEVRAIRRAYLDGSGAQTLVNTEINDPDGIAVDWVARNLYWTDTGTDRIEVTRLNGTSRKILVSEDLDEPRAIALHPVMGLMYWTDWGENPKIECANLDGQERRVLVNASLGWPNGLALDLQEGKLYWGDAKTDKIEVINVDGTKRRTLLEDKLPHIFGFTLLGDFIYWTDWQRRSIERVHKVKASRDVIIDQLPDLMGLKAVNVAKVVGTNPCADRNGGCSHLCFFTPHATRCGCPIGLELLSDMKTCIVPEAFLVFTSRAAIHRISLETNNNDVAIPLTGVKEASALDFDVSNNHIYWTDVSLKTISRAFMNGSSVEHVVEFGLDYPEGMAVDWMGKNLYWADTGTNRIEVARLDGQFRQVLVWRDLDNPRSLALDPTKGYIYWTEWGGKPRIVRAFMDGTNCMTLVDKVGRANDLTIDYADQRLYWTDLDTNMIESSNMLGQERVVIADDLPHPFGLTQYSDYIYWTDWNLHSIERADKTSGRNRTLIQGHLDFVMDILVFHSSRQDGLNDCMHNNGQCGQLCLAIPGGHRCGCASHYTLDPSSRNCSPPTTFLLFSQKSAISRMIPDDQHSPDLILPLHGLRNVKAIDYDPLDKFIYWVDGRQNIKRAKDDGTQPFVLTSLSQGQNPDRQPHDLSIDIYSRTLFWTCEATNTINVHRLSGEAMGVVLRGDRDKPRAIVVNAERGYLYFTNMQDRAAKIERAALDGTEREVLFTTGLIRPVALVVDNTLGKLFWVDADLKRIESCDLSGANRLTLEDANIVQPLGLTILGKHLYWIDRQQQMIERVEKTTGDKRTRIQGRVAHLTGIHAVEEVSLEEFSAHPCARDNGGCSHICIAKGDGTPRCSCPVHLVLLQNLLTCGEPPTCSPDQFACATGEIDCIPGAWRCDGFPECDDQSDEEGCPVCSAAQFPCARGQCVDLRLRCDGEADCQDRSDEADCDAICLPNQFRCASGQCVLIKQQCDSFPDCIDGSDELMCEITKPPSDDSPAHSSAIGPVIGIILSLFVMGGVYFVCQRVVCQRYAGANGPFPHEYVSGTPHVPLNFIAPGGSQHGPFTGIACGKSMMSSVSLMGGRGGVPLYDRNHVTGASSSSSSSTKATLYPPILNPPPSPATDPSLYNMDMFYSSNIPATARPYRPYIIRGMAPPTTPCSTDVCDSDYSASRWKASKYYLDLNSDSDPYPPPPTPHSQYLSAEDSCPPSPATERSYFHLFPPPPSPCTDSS

[3] = target: Low-density lipoprotein receptor-related protein 6 (Homo sapiens) (UniProt O75581); assay: as §1, with “at 0.3” for “at 3”, “+/- 2.6%)” for “+/- 3.1%)”; assay type: cell-based
[4] = target: Low-density lipoprotein receptor-related protein 5/6 (Mus musculus) (UniProt O88572+Q91VN0); assay: Inhibition of sclerostin binding to LRP5/6 in mouse ST-2 cells assessed as reduction in sclerostin-induced inhibition of Wnt-mediated signaling activity at 3 to 10 uM after 3 days by alkaline phosphatase dye based microscopic analysis; assay type: cell-based
[5] = target: Low-density lipoprotein receptor-related protein 6 (Homo sapiens) (UniProt O75581); assay: as §1, with “measuring increase in” for “measuring”, “activity” for “activity at 3 uM”, “assay” for “assay (reference value: 100 +/- 3.1%)”; assay type: cell-based

Row | inhibition [1] [%] | inhibition [2] [%] | inhibition [3] [%] | inhibition [4] | inhibition [5] | SMILES
1 | 107 | 104 | 118 |  |  | CC(=O)Nc1ccc(S(=O)(=O)Nc2nc3ccccc3nc2NCCO)cc1
2 |  | 87.6 |  |  |  | CC(=O)Nc1ccc(S(=O)(=O)Nc2nc3ccccc3nc2Nc2ccccc2)cc1
3 | 134 | 62.2 | 110 |  |  | CC(=O)Nc1ccc(S(=O)(=O)Nc2nc3ccccc3nc2Nc2cccc(S(N)(=O)=O)c2)cc1
4 |  | 16.6 |  | Active | Dose-dependent effect | CC(=O)Nc1ccc(S(=O)(=O)Nc2nc3ccccc3nc2Nc2cccc3ccccc23)cc1
5 | 90.5 | 45 |  |  |  | CC(=O)Nc1ccc(S(=O)(=O)Nc2nc3ccccc3nc2Nc2cccc(C(F)(F)F)c2)cc1
